From ChEMBL document CHEMBL1201862, “PubChem BioAssay data set” (2004)
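1) Cells in 96-well plates. 2) Compound, 48 h, 5 concentrations. 3) Linear interpolation between surrounding doses. 4) Unreached endpoint = highest concentration. GI50 = concentration required for 50% inhibition of growth.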 Calls of active or inactive are those of the source. Rule as the data show it: active = GI50 up to about 1.1 µM and inactive = higher.

Key:
Test in all cases: growth of human tumour cells (NCI), 48 h
LOX IMVI = tested on: LOX IMVI
SF-268 = tested on: SF-268
SK-MEL-2 = tested on: SK-MEL-2
NCI/ADR-RES = tested on: NCI/ADR-RES
SF-295 = tested on: SF-295
UACC-257 = tested on: UACC-257
SR = tested on: SR
Malme-3M = tested on: Malme-3M
COLO 205 = tested on: COLO 205
DU-145 = tested on: DU-145
SK-MEL-28 = tested on: SK-MEL-28
HT-29 = tested on: HT-29
HCC 2998 = tested on: HCC 2998
SK-OV-3 = tested on: SK-OV-3
OVCAR-3 = tested on: OVCAR-3
HCT-116 = tested on: HCT-116
CAKI-1 = tested on: CAKI-1
NCI-H460 = tested on: NCI-H460
MDA-MB-231 = tested on: MDA-MB-231
786-0 = tested on: 786-0

SMILES | GI50 (LOX IMVI) | GI50 (SF-268) | GI50 (SK-MEL-2) | GI50 (NCI/ADR-RES) | GI50 (SF-295) | GI50 (UACC-257) | GI50 (SR) | GI50 (Malme-3M) | GI50 (COLO 205) | GI50 (DU-145) | GI50 (SK-MEL-28) | GI50 (HT-29) | GI50 (HCC 2998) | GI50 (SK-OV-3) | GI50 (OVCAR-3) | GI50 (HCT-116) | GI50 (CAKI-1) | GI50 (NCI-H460) | GI50 (MDA-MB-231) | GI50 (786-0)
CC(O)=C1C(=O)CCC1=O | > 100 µM (inactive) | > 100 µM (inactive) | > 100 µM (inactive) | > 100 µM (inactive) | > 100 µM (inactive) | > 100 µM (inactive) | > 100 µM (inactive) | > 100 µM (inactive) | > 100 µM (inactive) | > 100 µM (inactive) | > 100 µM (inactive) | > 100 µM (inactive) | > 100 µM (inactive) | > 100 µM (inactive) | > 100 µM (inactive) | > 100 µM (inactive) | > 100 µM (inactive) | > 100 µM (inactive) | – | –
O=C(COc1cc(=O)oc2ccccc12)c1ccccc1 | 41.1 µM (inactive) | 48.5 µM (inactive) | 30.7 µM (inactive) | – | 29.1 µM (inactive) | > 100 µM (inactive) | > 100 µM (inactive) | > 100 µM (inactive) | – | > 100 µM (inactive) | 32.3 µM (inactive) | 22.6 µM (inactive) | > 100 µM (inactive) | – | 19.4 µM (inactive) | 17.9 µM (inactive) | 4.69 µM (inactive) | > 100 µM (inactive) | 83.8 µM (inactive) | 30.2 µM (inactive)
O=C1C(Cl)=C(Cl)C(=O)C(CCNc2nccs2)=C1Cl | – | 38.6 µM (inactive) | 27.6 µM (inactive) | 25.5 µM (inactive) | > 100 µM (inactive) | 21.1 µM (inactive) | 47.2 µM (inactive) | 20.4 µM (inactive) | 32.8 µM (inactive) | 58.7 µM (inactive) | 39 µM (inactive) | 35.2 µM (inactive) | > 100 µM (inactive) | > 100 µM (inactive) | 25.8 µM (inactive) | 28.2 µM (inactive) | 19.3 µM (inactive) | > 100 µM (inactive) | – | 23.3 µM (inactive)
C(=N\c1cc2cc(Sc3ccccc3)ccc2[nH]1)/c1ccccc1 | 5.85 µM (inactive) | > 12.5 µM (inactive) | – | > 12.5 µM (inactive) | 11 µM (inactive) | > 12.5 µM (inactive) | 1.32 µM (inactive) | > 12.5 µM (inactive) | – | > 12.5 µM (inactive) | > 12.5 µM (inactive) | > 12.5 µM (inactive) | 6.41 µM (inactive) | – | > 12.5 µM (inactive) | > 12.5 µM (inactive) | > 12.5 µM (inactive) | – | – | > 12.5 µM (inactive)
COc1cc(/C=N/n2c(Cc3ccc(Cl)cc3)n[nH]c2=O)cc(OC)c1OC | – | 46.3 µM (inactive) | > 100 µM (inactive) | > 100 µM (inactive) | > 100 µM (inactive) | 37.5 µM (inactive) | – | > 100 µM (inactive) | > 100 µM (inactive) | – | > 100 µM (inactive) | > 100 µM (inactive) | 37.7 µM (inactive) | > 100 µM (inactive) | 85.9 µM (inactive) | > 100 µM (inactive) | > 100 µM (inactive) | 33.5 µM (inactive) | > 100 µM (inactive) | > 100 µM (inactive)
COc1cc(C2c3[nH]c4ccccc4c3C[C@H]3COC(=O)N23)cc(OC)c1OC (some centres undefined) | 0.0336 µM (active) | 0.132 µM (active) | 0.0655 µM (active) | – | 0.0262 µM (active) | 0.0321 µM (active) | 0.0373 µM (active) | 0.0453 µM (active) | 0.0687 µM (active) | 0.0879 µM (active) | 0.0796 µM (active) | 0.097 µM (active) | 0.131 µM (active) | 0.0366 µM (active) | 0.0307 µM (active) | 0.0416 µM (active) | 0.885 µM (active) | 0.055 µM (active) | 0.815 µM (active) | 0.0304 µM (active)
